Numbers after ± are expanded uncertainties.
Assay: activity coefficient (dimensionless); of the first substance listed, at infinite dilution; xn = mol fraction of the nth substance listed
Settings: 101.33 kPa, Liquid, Chromatography, x1 = 0

Compound	activity coefficient (318.15 K)	activity coefficient (328.15 K)	activity coefficient (338.15 K)	activity coefficient (348.15 K)	activity coefficient (358.15 K)	activity coefficient (368.15 K)
Cc1ccccc1C [1,2-dimethylbenzene] + CCCCCCCCCCCCn1cc[n+](C)c1.O=S(=O)([N-]S(=O)(=O)C(F)(F)F)C(F)(F)F	0.812 ± 0.053	0.851 ± 0.055	0.892 ± 0.057	0.93 ± 0.06	0.968 ± 0.061	1.01 ± 0.06
Cc1cccc(C)c1 [1,3-dimethylbenzene] + CCCCCCCCCCCCn1cc[n+](C)c1.O=S(=O)([N-]S(=O)(=O)C(F)(F)F)C(F)(F)F	0.874 ± 0.056	0.918 ± 0.058	0.96 ± 0.06	1 ± 0.06	1.04 ± 0.07	1.09 ± 0.07
Cc1ccc(C)cc1 [1,4-dimethylbenzene] + CCCCCCCCCCCCn1cc[n+](C)c1.O=S(=O)([N-]S(=O)(=O)C(F)(F)F)C(F)(F)F	0.869 ± 0.056	0.914 ± 0.058	0.958 ± 0.06	1 ± 0.06	1.05 ± 0.07	1.09 ± 0.07
C1COCCO1 [1,4-dioxane] + CCCCCCCCCCCCn1cc[n+](C)c1.O=S(=O)([N-]S(=O)(=O)C(F)(F)F)C(F)(F)F	0.474 ± 0.037	0.499 ± 0.038	0.524 ± 0.039	0.548 ± 0.04	0.572 ± 0.041	0.597 ± 0.042
C=CCCCCCCCC [1-decene] + CCCCCCCCCCCCn1cc[n+](C)c1.O=S(=O)([N-]S(=O)(=O)C(F)(F)F)C(F)(F)F	4.18 ± 0.28	4.27 ± 0.29	4.36 ± 0.3	4.44 ± 0.3	4.52 ± 0.31	4.6 ± 0.31
C=CCCCCC [1-heptene] + CCCCCCCCCCCCn1cc[n+](C)c1.O=S(=O)([N-]S(=O)(=O)C(F)(F)F)C(F)(F)F	2.56 ± 0.17	2.62 ± 0.18	2.68 ± 0.18	2.74 ± 0.19	2.8 ± 0.19	2.85 ± 0.19
C#CCCCCC [1-heptyne] + CCCCCCCCCCCCn1cc[n+](C)c1.O=S(=O)([N-]S(=O)(=O)C(F)(F)F)C(F)(F)F	1.47 ± 0.1	1.53 ± 0.1	1.59 ± 0.11	1.65 ± 0.11	1.7 ± 0.11	1.76 ± 0.12
C#CCCCC [1-hexyne] + CCCCCCCCCCCCn1cc[n+](C)c1.O=S(=O)([N-]S(=O)(=O)C(F)(F)F)C(F)(F)F	1.25 ± 0.08	1.3 ± 0.08	1.35 ± 0.09	1.4 ± 0.09	1.45 ± 0.1	1.49 ± 0.1
CCC[N+](=O)[O-] [1-nitropropane] + CCCCCCCCCCCCn1cc[n+](C)c1.O=S(=O)([N-]S(=O)(=O)C(F)(F)F)C(F)(F)F	0.567 ± 0.041	0.582 ± 0.041	0.596 ± 0.042	0.609 ± 0.043	0.621 ± 0.043	0.634 ± 0.044
C#CCCCCCC [1-octyne] + CCCCCCCCCCCCn1cc[n+](C)c1.O=S(=O)([N-]S(=O)(=O)C(F)(F)F)C(F)(F)F	1.74 ± 0.12	1.8 ± 0.12	1.87 ± 0.13	1.93 ± 0.13	1.99 ± 0.14	2.06 ± 0.14
C=CCCC [1-pentene] + CCCCCCCCCCCCn1cc[n+](C)c1.O=S(=O)([N-]S(=O)(=O)C(F)(F)F)C(F)(F)F	1.82 ± 0.12	1.88 ± 0.13	1.93 ± 0.13	1.99 ± 0.14	2.04 ± 0.14	2.08 ± 0.14
C#CCCC [1-pentyne] + CCCCCCCCCCCCn1cc[n+](C)c1.O=S(=O)([N-]S(=O)(=O)C(F)(F)F)C(F)(F)F	1.07 ± 0.07	1.11 ± 0.07	1.16 ± 0.07	1.2 ± 0.08	1.24 ± 0.08	1.28 ± 0.08
CC(C)CC(C)(C)C [2,2,4-trimethylpentane] + CCCCCCCCCCCCn1cc[n+](C)c1.O=S(=O)([N-]S(=O)(=O)C(F)(F)F)C(F)(F)F	3.59 ± 0.24	3.66 ± 0.25	3.72 ± 0.25	3.79 ± 0.26	3.85 ± 0.26	3.91 ± 0.27
CCC(C)(C)C [2,2-dimethylbutane] + CCCCCCCCCCCCn1cc[n+](C)c1.O=S(=O)([N-]S(=O)(=O)C(F)(F)F)C(F)(F)F	2.83 ± 0.19	2.89 ± 0.2	2.95 ± 0.2	3 ± 0.2	3.05 ± 0.21	3.1 ± 0.21
CCOC(C)(C)C [2-ethoxy-2-methylpropane] + CCCCCCCCCCCCn1cc[n+](C)c1.O=S(=O)([N-]S(=O)(=O)C(F)(F)F)C(F)(F)F	1.55 ± 0.1	1.62 ± 0.11	1.69 ± 0.11	1.75 ± 0.12	1.82 ± 0.12	1.88 ± 0.13
CCC(C)(C)OC [2-methoxy-2-methylbutane] + CCCCCCCCCCCCn1cc[n+](C)c1.O=S(=O)([N-]S(=O)(=O)C(F)(F)F)C(F)(F)F	1.11 ± 0.07	1.17 ± 0.07	1.23 ± 0.08	1.29 ± 0.08	1.35 ± 0.09	1.4 ± 0.09

Compound	activity coefficient (318.15 K)	activity coefficient (328.15 K)	activity coefficient (338.15 K)	activity coefficient (348.15 K)	activity coefficient (358.15 K)	activity coefficient (368.15 K)
COC(C)(C)C [2-methoxy-2-methylpropane] + CCCCCCCCCCCCn1cc[n+](C)c1.O=S(=O)([N-]S(=O)(=O)C(F)(F)F)C(F)(F)F	0.93 ± 0.059	0.985 ± 0.062	1.04 ± 0.07	1.09 ± 0.07	1.14 ± 0.07	1.2 ± 0.08
CC(C)CO [2-methyl-1-propanol] + CCCCCCCCCCCCn1cc[n+](C)c1.O=S(=O)([N-]S(=O)(=O)C(F)(F)F)C(F)(F)F	1.52 ± 0.1	1.42 ± 0.09	1.34 ± 0.09	1.26 ± 0.08	1.19 ± 0.08	1.13 ± 0.07
CC(C)(C)O [2-methylpropan-2-ol] + CCCCCCCCCCCCn1cc[n+](C)c1.O=S(=O)([N-]S(=O)(=O)C(F)(F)F)C(F)(F)F	1.12 ± 0.07	1.08 ± 0.07	1.04 ± 0.07	0.998 ± 0.062	0.964 ± 0.061	0.933 ± 0.059
CCC(C)CC [3-methylpentane] + CCCCCCCCCCCCn1cc[n+](C)c1.O=S(=O)([N-]S(=O)(=O)C(F)(F)F)C(F)(F)F	2.77 ± 0.19	2.83 ± 0.19	2.89 ± 0.2	2.94 ± 0.2	2.99 ± 0.2	3.04 ± 0.21
C=C(C)c1ccccc1 [(1-methylethenyl)benzene] + CCCCCCCCCCCCn1cc[n+](C)c1.O=S(=O)([N-]S(=O)(=O)C(F)(F)F)C(F)(F)F	0.79 ± 0.05	0.842 ± 0.054	0.896 ± 0.057	0.949 ± 0.06	1 ± 0.06	1.05 ± 0.07
CC(C)=O [acetone] + CCCCCCCCCCCCn1cc[n+](C)c1.O=S(=O)([N-]S(=O)(=O)C(F)(F)F)C(F)(F)F	0.353 ± 0.032	0.369 ± 0.033	0.386 ± 0.033	0.401 ± 0.034	0.417 ± 0.035	0.432 ± 0.035
CC#N [acetonitrile] + CCCCCCCCCCCCn1cc[n+](C)c1.O=S(=O)([N-]S(=O)(=O)C(F)(F)F)C(F)(F)F	0.508 ± 0.038	0.515 ± 0.038	0.524 ± 0.039	0.531 ± 0.039	0.539 ± 0.039	0.545 ± 0.04
c1ccccc1 [benzene] + CCCCCCCCCCCCn1cc[n+](C)c1.O=S(=O)([N-]S(=O)(=O)C(F)(F)F)C(F)(F)F	0.568 ± 0.041	0.594 ± 0.042	0.619 ± 0.043	0.644 ± 0.044	0.669 ± 0.045	0.694 ± 0.047
CCCCO [butan-1-ol] + CCCCCCCCCCCCn1cc[n+](C)c1.O=S(=O)([N-]S(=O)(=O)C(F)(F)F)C(F)(F)F	1.55 ± 0.1	1.46 ± 0.1	1.38 ± 0.09	1.31 ± 0.09	1.24 ± 0.08	1.19 ± 0.08
CCC(C)O (stereo unspecified) [butan-2-ol] + CCCCCCCCCCCCn1cc[n+](C)c1.O=S(=O)([N-]S(=O)(=O)C(F)(F)F)C(F)(F)F	1.29 ± 0.08	1.23 ± 0.08	1.18 ± 0.08	1.13 ± 0.07	1.09 ± 0.07	1.05 ± 0.07
CCCC=O [butanal] + CCCCCCCCCCCCn1cc[n+](C)c1.O=S(=O)([N-]S(=O)(=O)C(F)(F)F)C(F)(F)F	0.464 ± 0.036	0.486 ± 0.037	0.51 ± 0.038	0.531 ± 0.039	0.554 ± 0.04	0.575 ± 0.041
C1CCCCCC1 [cycloheptane] + CCCCCCCCCCCCn1cc[n+](C)c1.O=S(=O)([N-]S(=O)(=O)C(F)(F)F)C(F)(F)F	2.43 ± 0.17	2.45 ± 0.17	2.47 ± 0.17	2.49 ± 0.17	2.5 ± 0.17	2.52 ± 0.17
C1CCCCC1 [cyclohexane] + CCCCCCCCCCCCn1cc[n+](C)c1.O=S(=O)([N-]S(=O)(=O)C(F)(F)F)C(F)(F)F	2.14 ± 0.15	2.15 ± 0.15	2.17 ± 0.15	2.18 ± 0.15	2.19 ± 0.15	2.21 ± 0.15
C1=CCCCC1 [cyclohexene] + CCCCCCCCCCCCn1cc[n+](C)c1.O=S(=O)([N-]S(=O)(=O)C(F)(F)F)C(F)(F)F	1.56 ± 0.1	1.59 ± 0.11	1.62 ± 0.11	1.65 ± 0.11	1.68 ± 0.11	1.71 ± 0.11
C1CCCCCCC1 [cyclooctane] + CCCCCCCCCCCCn1cc[n+](C)c1.O=S(=O)([N-]S(=O)(=O)C(F)(F)F)C(F)(F)F	2.8 ± 0.19	2.82 ± 0.19	2.83 ± 0.19	2.84 ± 0.19	2.85 ± 0.19	2.86 ± 0.19

From the NIST ThermoML archive (doi:10.1016/j.jct.2016.08.008)
